The assay relates to LN229HRE-luc/lacZ cells (VEGF HRE, HIF-1 target). In words: Inhibition of hypoxia-inducible gene expression driven by HRE-reporter construct (firefly luciferase) in glioma cells. Format: cell-based. The conditions noted are these: Homo sapiens, Glioma cell; firefly luciferase activity in LN229HRE-luc/LacZ cells, 1 hour pretreatment under normoxia, then hypoxia (1% O2); from dose-response curves. As to the method: Inhibition of Hypoxia-Inducible Gene Expression Driven by Exogenous HRE-Reporter Constructs in Glioma Cells
LN229HRE-luc/lacZ cells were generated by stably transfecting human LN229 glioma cells with a bidirectional reporter construct (pBIGL-V6R) in which the firefly luciferase and LacZ reporter genes are under the control of 6 head to tail tandem copies of the VEGF HRE (hypoxia-responsive element—endogenous HIF-1 target gene) in rightward orientation (clone LN229V6R#18; Hygro selection […]) as reported in Yin et al. Clinical Cancer Research, 2012, 1-11.
Cells were pretreated with different doses of test compounds or 1% DMSO (final concentration in media) vehicle control for 1 hour under normoxia (21% O2); then incubation continued under normoxia or hypoxia (1% O2) using a hypoxia incubator (Thermo Forma model 3130). Firefly luciferase activities in lysates of LN229HRE-luc/LacZ cells were measured with a Dual-Luciferase Reporter Assay System (Promega) in a 20/20 n Luminometer (Promega). The IC50 (μM) value for each individual compound was established from the dose-response curves.

pIC50: −log10 of the molar value.

One may read the pIC50 as the IC50 on a negative log10 scale, so that one unit is a factor of ten.

Consider `COc1ccc(C(O)c2ccc(CO[C@H]3CCOC3)cc2)cc1OC` (stereo partly drawn) [3a, (3,4-Dimethoxyphenyl)(4-((((S)-tetrahydrofuran-3-yl)oxy)methyl)phenyl)methanol], for which the negative logarithm of the IC50 (pIC50) was 6.52. Take `COc1ccc(C(O)c2ccc(CO[C@@H]3CCOC3)cc2)cc1OC` (some centres unmarked) [3b]: the pIC50 was 5.47. Take `COc1ccc(C(O)c2ccc(COC3CCOC3)cc2)cc1OC` (centres unmarked) [3c]: the pIC50 was 5.47. For the compound `COc1ccc(C(O)c2ccc(CO[C@H]3CCOC3)cn2)cc1OC` (some centres unmarked) [3d], the pIC50 is less than 5.30.

Regarding `COc1ccc(C(O)c2ccc(COc3cccnc3)cn2)cc1OC` (centres unmarked) [3e], the negative-log IC50 (pIC50) is less than 5.30. To `COc1ccc([C@H](O)c2ccc(COC3CCOC3)cc2)cc1OC` (some centres unmarked) [3f] belongs less than 5.30; to `COc1ccc(C(O)c2ccc(COC3CCCCC3)cc2)cc1OC` (centres unmarked) [3g], 6.40. As for `COc1ccc(C(O)c2ccc(COC3CCCCC3)cc2)c(OC)c1` (centres unmarked) [3h], the pIC50 was 6.17.

Take `CCCCOCc1ccc(C(O)c2ccc(OC)c(OC)c2)cc1` (centres unmarked) [3i, (4-(Butoxymethyl)phenyl)(3,4-dimethoxyphenyl)methanol]: the negative-log IC50 (pIC50) was 6.30. In the case of `CCCCOCc1ccc(C(O)c2ccc(OC)cc2OC)cc1` (centres unmarked) [3j], the negative logarithm of the IC50 (pIC50) is 6.20. Turning to `CCOCc1ccc(C(O)c2ccc(OC)c(OC)c2)cc1` (centres unmarked) [3k], the negative-log IC50 (pIC50) was less than 5.30.

With `CCOCc1ccc(C(O)c2ccc(OC)cc2)cc1` (centres unmarked) [3l], the pIC50 is less than 5.30. For `CCCOCc1ccc(C(O)c2ccc(OC)c(OC)c2)cc1` (centres unmarked) [3m] the value was 6.52; for `COc1ccc(C(O)c2ccc(COC(C)C)cc2)cc1OC` (centres unmarked) [3n], less than 5.30; for `COc1ccc(C(O)c2ccc(COC3CCN(C(=O)OC(C)(C)C)CC3)cc2)cc1OC` (centres unmarked) [3o], 6.05. For the compound `CCCOCc1ccc(C(O)c2ccc(OC)c(OCc3ccccc3)c2)cc1` (centres unmarked) [3p], the pIC50 was less than 5.30. With `CCCCOCc1ccc(C(O)c2cccc(OCc3ccccc3)c2)cc1` (centres unmarked) [3q], the pIC50 is less than 5.30. Consider `CCCOCc1ccc(C(O)c2ccc(OCOC)cc2)cc1` (centres unmarked) [3r], for which the pIC50 is less than 5.30.

On to `COc1ccc(C(O)c2ccc(COC3CN(C(=O)OC(C)(C)C)C3)cc2)cc1OC` (centres unmarked) [3s], for which the pIC50 is less than 5.30.

Regarding `COc1ccc(C(O)c2ccc(CO[C@@H]3CCN(C(=O)OC(C)(C)C)C3)cc2)cc1OC` (some centres unmarked) [3t], the negative-log IC50 (pIC50) was less than 5.30.

On to `CCCOCc1ccc(C(O)c2ccc(OC)c(OCOC)c2)cc1` (centres unmarked) [3u], for which the pIC50 is less than 5.30. For `CCCOCc1ccc(C(O)c2ccc(OC)c(OCCC)c2)cc1` (centres unmarked) [3v] the value was 5.30; for `CCCOCc1ccc(C(O)c2ccc(OCc3ccccc3)c(OCC)c2)cc1` (centres unmarked) [3w], less than 5.30. `COc1ccc(C(O)c2cccc(COc3ccccc3)c2)cc1OC` (centres unmarked) [6a]: the pIC50 is 6.00. For the compound `COc1ccc(C(O)c2cccc(COC3CCN(C(=O)OC(C)(C)C)CC3)c2)cc1OC` (centres unmarked) [6b, Tert-butyl 4-((3-((3,4-dimethoxyphenyl)(hydroxy)methyl)benzyl)oxy)piperidine-1-carboxylate], the negative-log IC50 (pIC50) is 6.70. Regarding `COc1ccc(C(O)c2cccc(COC3CCN(C(=O)OC(C)(C)C)CC3)c2)c(OC)c1` (centres unmarked) [6c], the negative-log IC50 (pIC50) is 6.26. For `OC(c1ccccc1)c1cccc(COc2cccc3ccccc23)c1` (centres unmarked) [6d] the value was less than 5.30; for `COc1ccc(C(O)c2cccc(COc3cccc4ccccc34)c2)cc1OC` (centres unmarked) [6e], 5.74. On to `CCOCc1cccc(C(O)c2ccc(OC)cc2)c1` (centres unmarked) [6f], for which the pIC50 is less than 5.30.

Consider `CCCCOCc1cccc(C(O)c2ccc(OC)cc2)c1` (centres unmarked) [6g], for which the pIC50 was less than 5.30. `CCCCOCc1cccc(C(O)c2ccc(OC)cc2OC)c1` (centres unmarked) [6h]: the pIC50 is 6.32. Consider `CCCOCc1cccc(C(O)c2ccc(OC)cc2OC)c1` (centres unmarked) [6i], for which the negative logarithm of the IC50 (pIC50) was 5.30.

Regarding `CCCCOCc1cccc(C(O)c2ccc(OC)c(OC)c2)c1` (centres unmarked) [6j], the pIC50 is 5.61. In the case of `CCCCOc1cccc(C(O)c2cccc(COCCC)c2)c1` (centres unmarked) [6k], the pIC50 is 5.42. For `CCCCOCc1cccc(C(O)c2ccc(OC)c(OCc3ccccc3)c2)c1` (centres unmarked) [6l], the pIC50 was 5.53. Consider `CCCCOCc1cccc(C(O)c2cccc(OCc3ccccc3)c2)c1` (centres unmarked) [6m], for which the negative-log IC50 (pIC50) was less than 5.30. On to `CCCCOCc1cccc(C(O)c2ccc(OC)c(OCOC)c2)c1` (centres unmarked) [6n], for which the pIC50 is 6.12. For `CCCCOCc1cccc(C(O)c2ccc(OC)c(OCCCC)c2)c1` (centres unmarked) [6o], the pIC50 is 6.00.

Consider `CCCCOCc1cccc(C(O)c2ccc(OCc3ccccc3)c(OCC)c2)c1` (centres unmarked) [6p], for which the negative logarithm of the IC50 (pIC50) was 6.21. For the compound `CCCOCc1ccccc1C(O)c1ccc(OC)c(OC)c1` (centres unmarked) [9a], the negative-log IC50 (pIC50) is less than 5.30. For the compound `CCCCOCc1ccccc1C(O)c1ccc(OC)c(OCc2ccccc2)c1` (centres unmarked) [9b], the negative-log IC50 (pIC50) was less than 5.30.

As to `CCCCOCc1cccc(C(O)c2cccc(OCOC)c2)c1` (centres unmarked) [9c], the pIC50 was less than 5.30. Take `CCCCOCc1cccc(C(O)c2cccc(OCCCC)c2)c1` (centres unmarked) [9d]: the negative logarithm of the IC50 (pIC50) was less than 5.30. Take `C=CCOc1ccc(C(O)c2ccc(OC)c(OC)c2)cc1` (centres unmarked) [14a]: the negative logarithm of the IC50 (pIC50) was less than 5.30.

Turning to `CCCCCOc1ccc(C(O)c2ccc(OC)c(OC)c2)cc1` (centres unmarked) [14b], the negative-log IC50 (pIC50) is 5.72. For `COc1ccc(C(O)c2ccc(OCCC3CCN(C(=O)OC(C)(C)C)CC3)cc2)cc1OC` (centres unmarked) [14c] the value was 6.48; for `COc1ccc(C(O)c2ccc(OCc3cnco3)cn2)cc1OC` (centres unmarked) [14d], less than 5.30; for `CCCCOc1ccc(C(O)c2ccc(OC)c(OC)c2)nc1` (centres unmarked) [15a], less than 5.30.

Take `CCCCOc1ccc(C(O)c2ccc(OC)cc2OC)nc1` (centres unmarked) [15b]: the pIC50 is less than 5.30.

As for `COc1ccc(C(O)c2ccc(OC(C)C)cn2)cc1OC` (centres unmarked) [15c], the pIC50 was less than 5.30. To `COc1ccc(C(O)c2ccc(OC(C)C)cn2)c(OC)c1` (centres unmarked) [15d] belongs less than 5.30; to `COc1ccc(C(O)c2ccc(CN3CCOCC3)cn2)cc1OC` (centres unmarked) [21a], less than 5.30; to `COc1ccc(C(O)c2ccc(CN3CCN(C(=O)OC(C)(C)C)CC3)cc2)cc1OC` (centres unmarked) [21b], 5.83.

Regarding `COc1ccc(C(O)c2ccc(CBr)cc2)cc1OC` (centres unmarked) [21c], the negative logarithm of the IC50 (pIC50) was 6.00. For the compound `COc1ccc(C(O)c2ccccc2)cc1OC` (centres unmarked) [24a], the negative-log IC50 (pIC50) was 5.66. Take `COc1ccc(C(O)c2ccc(OC)c(OC)c2)cc1OC` [24b]: the pIC50 was less than 5.30. For `COc1ccc(OC)c(C(O)c2ccc(OC)c(OC)c2)c1` (centres unmarked) [24c], the pIC50 is less than 5.30. To `COc1ccc(C(O)c2ccc(N3CCN(C)CC3)cc2)cc1OC` (centres unmarked) [24d] belongs less than 5.30.

For `COc1ccc(C(O)c2ccc(C3CCCO3)cc2)cc1OC` (centres unmarked) [24e], the pIC50 was 5.30. With `COc1ccc(C(O)c2ccc(-c3ccccc3)cc2)cc1OC` (centres unmarked) [24f], the negative logarithm of the IC50 (pIC50) is less than 5.30. To `COc1ccc(C(O)c2ccc3c(c2)C=CC(C)(C)O3)cc1OC` (centres unmarked) [26a] belongs 6.22; to `COc1cccc(C(O)c2ccc3c(c2)C=CC(C)(C)O3)c1` (centres unmarked) [26b], less than 5.30; to `COc1ccc(C(O)c2cc3c(c(OC)c2)OC(C)(C)C=C3)cc1OC` (centres unmarked) [26c], 5.51. In the case of `COc1ccc(C(O)c2ccc3c(n2)C=CC(C)(C)O3)cc1OC` (centres unmarked) [26d], the pIC50 was 5.65.

Turning to `COc1ccc(C(O)c2cc3c(c(OC)c2)OC(C)(C)CC3)cc1OC` (centres unmarked) [27c], the pIC50 was 5.38. `COc1ccc(C(O)c2ccc3c(n2)CCC(C)(C)O3)cc1OC` (centres unmarked) [27d]: the negative logarithm of the IC50 (pIC50) was 5.64.

`COc1ccc(C(O)c2ccc3c(c2)CCO3)cc1OC` (centres unmarked) [29a]: the pIC50 is less than 5.30. On to `COc1ccc(C(O)c2ccc3c(c2)OCCN3C)cc1OC` (centres unmarked) [29b], for which the pIC50 was less than 5.30. To `COc1ccc(C(O)c2ccc3ccccc3c2)cc1OC` (centres unmarked) [29c] belongs 5.92; to `COc1ccc(C(O)c2ccc3c(c2)OCCO3)cc1OC` (centres unmarked) [29d], 5.38; to `COc1ccc(C(O)c2ccc3sc(C)cc3c2)cc1OC` (centres unmarked) [29e], 5.99. Turning to `COc1ccc(C(O)c2ccc3sc(C)cc3c2)c(OC)c1` (centres unmarked) [29f], the negative-log IC50 (pIC50) is less than 5.30. As for `CCCCCCOc1ccc2cc(C(O)c3ccc(OC)c(OC)c3)ccc2c1` (centres unmarked) [32a], the pIC50 is 5.74. In the case of `CCCOc1ccc2cc(C(O)c3ccc(OC)c(OC)c3)ccc2c1` (centres unmarked) [32b], the negative-log IC50 (pIC50) is 5.53. `CCCCOc1ccc2cc(C(O)c3ccc(OC)c(OC)c3)ccc2c1` (centres unmarked) [32c]: the negative logarithm of the IC50 (pIC50) is 5.48. To `COc1ccc(C(O)c2ccc3cc(OC(C)C)ccc3c2)cc1OC` (centres unmarked) [32d] belongs 5.58; to `COc1ccc(C(O)c2ccc(OC3CCOC3)cc2OC)cc1OC` (centres unmarked) [35a], 5.38; to `CCCCCOc1ccc(C(O)c2ccc(OC)c(OC)c2)c(F)c1` (centres unmarked) [35b], 5.89.

Turning to `CCCCCOc1ccc(C(O)c2ccc(OC)c(OC)c2)c(C)c1` (centres unmarked) [35c], the pIC50 was 6.37. Regarding `COc1ccc(C(O)c2ccc(OCC3CCN(C(=O)OC(C)(C)C)CC3)cc2C)cc1OC` (centres unmarked) [35d], the negative logarithm of the IC50 (pIC50) was 6.48.

For `COc1ccc(C(O)c2ccc(OCCC3CCN(C(=O)OC(C)(C)C)CC3)cc2C)cc1OC` (centres unmarked) [35e, Tert-butyl 4-(2-(4-((3,4-dimethoxyphenyl)(hydroxy)methyl)-3-methylphenoxy)ethyl)piperidine-1-carboxylate], the negative logarithm of the IC50 (pIC50) is 6.57. `COc1cc(C(O)c2ccc(OCC3CCN(C(=O)OC(C)(C)C)CC3)cc2C)cc(OC)c1OC` (centres unmarked) [35f]: the negative logarithm of the IC50 (pIC50) is 6.57.

As for `COc1cc(C(O)c2ccc(OCCC3CCN(C(=O)OC(C)(C)C)CC3)cc2C)cc(OC)c1OC` (centres unmarked) [35g, Tert-butyl 4-(2-(4-(hydroxy(3,4,5-trimethoxyphenyl)methyl)-3-methylphenoxy)ethyl)piperidine-1-carboxylate], the negative-log IC50 (pIC50) is 6.57.

(Values after patent publication US10772858B2, “Benzhydrol derivatives for the management of conditions related to hypoxia inducible factors” (GEORGIA STATE UNIVERSITY RESEARCH FOUNDATION, priority 2015, dated 2020).)
